Reference: US10232021B2, “Calcitonin mimetics for treating diseases and disorders” (KEYBIOSCIENCE AG, priority 2013, dated 2019)
Bridges are numbered along the chain shown (N, C = ends).

How the values were obtained:
[1] = Three-week treatment of ZDF rats: fasting plasma glucose and HbA1c; assay type: in vivo, male ZDF (fa/fa) rats; conditions: 5 μg/kg/day subcutaneously once daily, 3 weeks
Experimental: To assess the effects of the peptides in relation to regulation of blood glucose levels, male ZDF rats, which are the gold standard model of Type 2 Diabetes were treated for 3 weeks with the 3 most promising KBPs (023, 056 and 088) and an active comparator (UGP302/KBP-042). Male ZDF (fa/fa) rats were obtained at the age of 7 weeks from Charles River Laboratories (Kisslegg, Deutschland). All animals were housed at the animal facility at Nordic Bioscience with a constant temperature (21-23° C.) and relative humidity (55-65%) on a 12 h light/dark cycle with free access to Purina 5008 rat chow (Brogaarden, Lynge, Denmark) and tap water. At the age of 8 weeks, the animals were randomized into five groups of 8 rats each based upon fasting blood glucose and body weight (Vehicle (saline), UGP302/KBP-042 5 μg/kg/day, KBP-023 5 μg/kg/day, KBP-056 5 μg/kg/day and KBP-088 5 μg/kg/day) and dosing was done subcutaneously once daily. The animals were treated for a total of 3 weeks to assess the effect of the peptides on fasting blood glucose. Blood glucose was monitored using the Accu-Check® Avia monitoring system (Roche Diagnostics, Rotkreuz, Switzerland) and HbA1c levels by the DCA Vantage™ Analyzer (Siemens Healthcare Diagnostics, Deerfield, Ill.).

[2] = biological target: T1, Calcitonin Receptor (CTR) (Homo sapiens, UniProt P30988); test: PathHunter β-arrestin assay on the calcitonin receptor, incl. prolonged activation; assay type: cell-based; conditions: U20S-CALCR cells; 4, 8, 24, 48, 72 h; 0.001-100 nM
T1 construct: host or cells: U2OS
T1 sequence (P30988 25-474): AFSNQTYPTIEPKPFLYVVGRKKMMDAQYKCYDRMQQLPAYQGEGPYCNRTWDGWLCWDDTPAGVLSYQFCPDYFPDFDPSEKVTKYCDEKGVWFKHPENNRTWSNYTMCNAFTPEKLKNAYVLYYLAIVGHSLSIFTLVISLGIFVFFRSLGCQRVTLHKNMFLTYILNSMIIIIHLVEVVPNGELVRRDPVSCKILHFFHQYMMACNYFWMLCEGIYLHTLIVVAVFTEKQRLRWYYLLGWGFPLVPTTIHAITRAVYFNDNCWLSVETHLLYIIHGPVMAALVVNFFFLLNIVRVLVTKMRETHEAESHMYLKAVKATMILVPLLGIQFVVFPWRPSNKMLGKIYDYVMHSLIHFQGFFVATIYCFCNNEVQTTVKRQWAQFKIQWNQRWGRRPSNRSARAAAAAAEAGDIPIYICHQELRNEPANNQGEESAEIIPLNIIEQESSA
Experimental: The following cell lines expressing the calcitonin, amylin and CGRP receptors were purchased and cultured according to the manufacturer's instructions. • 1. Calcitonin Receptor (CTR): U20S-CALCR from DiscoveRx (Cat. No.: 93-0566C3). • 2. Amylin Receptor (AMY-R): CHO-K1 CALCR+RAMP3 from DiscoveRx (Cat. No.: 93-0268C2). • 3. CGRP Receptor (CGRP-R): CHO-K1 CALCRL+RAMP1 from DiscoveRx (Cat. No.: 93-0269C2).
In independent bioassays, CTR, AMY-R and CGRP-R cells were treated with for the indicated timepoints with increasing doses of sCT, UGP-302/KBP-042 or the KBPs identified in Table 3 (0, 0.001, 0.01, 0.1, 1, 10, and 100 nM). […]
In this system, the GPCR is fused in frame with the small enzyme fragment ProLink™ and co-expressed in cells stably expressing a fusion protein of β-Arrestin and the larger, N-terminal deletion mutant of β-gal (called enzyme acceptor or EA). […] This interaction leads to an increase in enzyme activity that can be measured using chemiluminescent PathHunter® Detection Reagents.
The assay was performed in white 384 well plates (Greiner Bio-One, 784080). […] To quantify the GPCR-mediated β-arrestin recruitment the Pathhunter™ Detection Kit (93-0001, DiscoverX) was used and assay performed accordingly to the manufacturer's instructions. […]

[3] = Bone resorption (CTX-I) and cartilage degradation (CTX-II) in rats on HFD; assay type: in vivo; conditions: male rats on HFD
Description: This confirmed that the KBPs maintain their beneficial effects on bone and cartilage despite the amino-acid changes.

[4] = Acute single-dose test on food intake, bodyweight and post-prandial glucose in high fat diet obese rats; assay type: in vivo, Male Sprague-Dawley rats
Experimental: To ensure the in vivo activity of this class of peptides, an acute test of the ability of KBP-056 to reduce food intake, bodyweight and post-prandial glucose compared to UGP302/KBP-042 was conducted. Male Sprague-Dawley rats were fed high fat diet for 8 weeks to induce obesity, and were then exposed to a single subcutaneous dose of 5 μg/kg KBP-056, UGP302/KBP-042 or vehicle (saline) (5 rats per group), and the effect on food intake, bodyweight and blood glucose was assessed. Blood was collected from the tail vein after 18 hours of dosing. Whole blood glucose levels were determined with an ACCU-CHEK® Avia blood glucose meter (Roche Diagnostics, Rotkreuz, Switzerland).

[5] = Eight-week treatment of obese rats: food intake and bodyweight; assay type: in vivo; conditions: 2.5 μg/kg/day subcutaneous
Experimental: To further investigate the potency of KBP-089 against KBP-042 obese rats were dosed with 2.5 μg/kg/day given as subcutaneous injection of either KBP-089 or KBP-042 and then two control groups, a vehicle and a calorie restriction group, in which the food intake was matched to the food intake of the KBP-089 group to shed light on whether effects independent of food intake could be observed.
In FIGS. 11A-11B; the effect of the peptides on food intake (FIG. 11A) and bodyweight (FIG. […]) during the eight week treatment period is shown in the upper and lower panels respectively. […] Additionally, when comparing KBP-089 to the calorie restricted control group (pair-fed), which has received exactly the same amount of food as the KBP-089 group over the study period, it is clear that the weight reduction is not only mediated by a restriction of food intake, but also by other effects.

[6] = Single-dose food intake in obese High-Fat-Diet rats; assay type: in vivo; conditions: single subcutaneous dose 1.25, 2.5, 5 μg/kg; obese rats fasted overnight
Experimental: Rats were fed a High-Fat-Diet for 14 weeks prior to the experiment to induce obesity.
Further similar studies were undertaken over different time periods and with different peptides and the results are seen in FIG. 10 and FIGS. 11A-11B. The ability of KBP089 to suppress food intake over 72 hours was compared to that of KBP042 as control and the results are seen in FIG. 10.

Row | Substance | HbA1c [1] | fasting plasma glucose (FPG) [1] | activation of the CTR (β-arrestin) [2] | bone resorption (CTX-I) [3] | cartilage degradation (CTX-II) [3] | maximum inhibition of CTX-I and CTX-II [3] | food intake ([4]; single subcutaneous dose 5 μg/kg, 18-hour period, obese HFD rats) | post-prandial glucose ([4]; single subcutaneous dose 5 μg/kg, blood after 18 hours, obese HFD rats) | bodyweight ([4]; single subcutaneous dose 5 μg/kg, obese HFD rats) | bodyweight during eight week treatment [5] | food intake during eight week treatment [5] | RANK (48 h) ([4]; rank symbol + or 0 at 48 h, legend not given) | food intake, 0-4 hours [6] | food intake, 4-24 hours [6] | food intake, 24-48 hours [6]
1 | KBP-056: SEQ ID NO: 11; AcCASLSTCVLGKLSQDLHKLQTFPRTDVGANAP-NH2 as printed in Table 3, Cys1-Cys7 disulphide bridge | highly active | highly active | superior ability to activate and maintain activation of the CTR | dose and time-dependently reduced | dose and time-dependently reduced | reached three hours after dosing and at doses exceeding 1 μg/kg/day | strongly reduced food intake | prominent reduction in post-prandial glucose levels | significant weight loss |  |  |  |  |  | 
2 | KBP-042: Peptide UGP302 of WO2013/067357, SEQ ID NO: 4; AcCSNLSTCVLGKLSQELHKLQTYPRTDVGANAP-NH2 (Ac-CSNLSTCVLGKLSQELHKLQTYPRTDVGANAP-NH2; ends and bridges not checked) [reference compound] |  |  |  |  |  |  |  |  |  | substantial weight loss | reduce food intake dramatically in the beginning | 0 |  |  | 
3 | KBP-089: SEQ ID NO: 44; AcCSNLSTCMLGRLSQDLHRLQTYPKTDVGANAP-NH2, Cys1-Cys7 disulphide bridge (Ac-CSNLSTCMLGRLSQDLHRLQTYPKTDVGANAP-NH2; disulfide 1-7; SMILES CSCC[C@H](NC(=O)[C@@H]1CSSC[C@H](NC(C)=O)C(=O)N[C@@H](CO)C(=O)N[C@@H](CC(N)=O)C(=O)N[C@@H](CC(C)C)C(=O)N[C@@H](CO)C(=O)N[C@@H]([C@@H](C)O)C(=O)N1)C(=O)N[C@@H](CC(C)C)C(=O)NCC(=O)N[C@@H](CCCNC(=N)N)C(=O)N[C@@H](CC(C)C)C(=O)N[C@@H](CO)C(=O)N[C@@H](CCC(N)=O)C(=O)N[C@@H](CC(=O)O)C(=O)N[C@@H](CC(C)C)C(=O)N[C@@H](Cc1c[nH]cn1)C(=O)N[C@@H](CCCNC(=N)N)C(=O)N[C@@H](CC(C)C)C(=O)N[C@@H](CCC(N)=O)C(=O)N[C@H](C(=O)N[C@@H](Cc1ccc(O)cc1)C(=O)N1CCC[C@H]1C(=O)N[C@@H](CCCCN)C(=O)N[C@H](C(=O)N[C@@H](CC(=O)O)C(=O)N[C@H](C(=O)NCC(=O)N[C@@H](C)C(=O)N[C@@H](CC(N)=O)C(=O)N[C@@H](C)C(=O)N1CCC[C@H]1C(N)=O)C(C)C)[C@@H](C)O)[C@@H](C)O) |  |  |  |  |  |  |  |  |  | greater than that introduced by KBP-042 | reduce food intake dramatically in the beginning |  | led to a reduction in food intake | the effect was maintained to 24 hours | led to a reduction in food intake
